Reference: PMC8318587, “Structure-guided microbial targeting of antistaphylococcal prodrugs” (eLife, 2021)

How the values were obtained:
mouse sera = test: Esterase substrate specificity, fluorogenic SAR library kinetics in serum; format: in vitro ADME
Experimental: (§1) Kinetic measurements were performed according to [White et al., 2018] with minor variation. Lyophilized human and mouse sera were resuspended according to manufacturer instructions in highly pure, filtered water at protein concentrations of 85 mg/mL and 70 mg/mL, respectively. One milliliter of resuspended serum was added to a 24 mL mastermix for a final concentration of 31.25 mM Tris pH 7.5, 312.5 mM NaCl, 1.25 mM MgCl2, 12.5% glycerol, and 3.4 mg/mL or 2.8 mg/mL protein for human and mouse serum, respectively. For purified proteins, 5 mL of a 75 µg/mL stock was added to yield a 20 mL mastermix containing 31.25 mM Tris pH 7.5, 312.5 mM NaCl, 1.25 mM MgCl2, 12.5% glycerol, and 18.75 µg/mL protein. Mastermix was stored on ice when not in use. Twenty microliters of mastermix was transferred to a black, 96-well half area microplate (Corning, CLS3993) and prewarmed at 37°C. Fluorogenic substrates were prepared as 10 mM stock solutions in 100% DMSO and were diluted in water to a starting concentration of 500 µM. Enzyme catalyzed substrate hydrolysis was initiated by addition of 5 µL substrate dilution in technical duplicate to the prewarmed serum or protein solution. Final assay concentrations were as follows: 25 mM Tris pH 7.5, 250 mM NaCl, 1 mM MgCl2, 10% glycerol, and protein at a concentration of 2.72 mg/mL (human serum), 2.24 mg/mL (mouse serum), or 15 µg/mL (FrmB, GloB). The resulting change in fluorescence (λex = 485 nm, λem = 520 nm) was followed for 15 min at 37°C, collecting data every 30 s on a FLUOstar Omega microplate reader (BMG Labtech). Fluorescence measurements were converted to molar concentrations using a fluorescein standard curve (2.5 nmol–0.6 pmol). The initial rates of reaction were measured three independent times with two technical replicates per measurement and fit to a line using GraphPad Prism (GraphPad Software, La Jolla, CA). Initial rates of reaction were plotted versus the concentration of substrate and fit to a standard Michaelis–Menten equation (v = Vmax[S]/(Km + [S])), yielding estimates of Vmax and Km. Values for kcat and kcat/Km were calculated based on amount of enzyme added when purified enzymes were used.

human sera = test: as above; format: in vitro ADME
Experimental: as §1

SaFrmB = target: T1, SaFrmB (Staphylococcus aureus, UniProt A0A0H3KFB7); test: Esterase substrate specificity, fluorogenic SAR library kinetics; format: biochemical; details: for kcat/kuncat: SaFrmB; for Km: SaFrmB 15 µg/mL, pH 7.5, 37°C
T1 construct: made in house; host or cells: E. coli BL21 (DE3)
T1 sequence (A0A0H3KFB7 1-253): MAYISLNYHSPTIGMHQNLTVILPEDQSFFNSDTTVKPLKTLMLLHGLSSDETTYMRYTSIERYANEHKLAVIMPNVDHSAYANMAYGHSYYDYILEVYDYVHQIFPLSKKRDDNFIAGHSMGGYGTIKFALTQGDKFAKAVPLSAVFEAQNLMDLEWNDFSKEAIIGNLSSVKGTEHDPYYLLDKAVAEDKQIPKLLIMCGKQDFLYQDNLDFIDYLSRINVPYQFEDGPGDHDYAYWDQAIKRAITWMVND
Experimental: as §1

SaGloB = target: T2, SaGloB (Staphylococcus aureus, UniProt P0DY75); test: as above; format: biochemical; details: SaGloB; for kcat/kuncat: normalised to uncatalysed hydrolysis rate; for Km: fluorogenic ester substrate
T2 sequence (P0DY75 1-207): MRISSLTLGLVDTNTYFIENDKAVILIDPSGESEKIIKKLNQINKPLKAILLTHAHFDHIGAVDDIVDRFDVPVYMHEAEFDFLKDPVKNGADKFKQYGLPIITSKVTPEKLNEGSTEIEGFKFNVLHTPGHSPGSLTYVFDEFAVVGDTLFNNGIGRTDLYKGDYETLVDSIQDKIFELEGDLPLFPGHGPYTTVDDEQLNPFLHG
Experimental: as §1

Row | SMILES | Km (mouse sera) | Km (human sera) | Vmax (human sera) | kcat/kuncat (SaFrmB) | kcat/kuncat (SaGloB) | Km (SaFrmB) | Km (SaGloB) | Vmax (mouse sera)
1 | CCCC(=O)OCOc1ccc2c(c1)Oc1cc(OCOC(=O)CCC)ccc1C21OC(=O)c2ccccc21 [1C] | > 50 µM | 36.2 µM | 1.06 pmol*min-1*mg sera-1 | 7.99 103 | 21.2 103 | – | – | –
2 | CSCC(=O)OCOc1ccc2c(c1)Oc1cc(OCOC(=O)CSC)ccc1C21OC(=O)c2ccccc21 [1S] | > 50 µM | 71.8 µM | 30.5 pmol*min-1*mg sera-1 | – | 11.4 103 | > 50 µM | – | –
3 | CCCCC(=O)OCOc1ccc2c(c1)Oc1cc(OCOC(=O)CCCC)ccc1C21OC(=O)c2ccccc21 [2C] | > 50 µM | 71.5 µM | 0.356 pmol*min-1*mg sera-1 | 4.74 103 | 17.2 103 | – | – | –
4 | CCOCC(=O)OCOc1ccc2c(c1)Oc1cc(OCOC(=O)COCC)ccc1C21OC(=O)c2ccccc21 [2O] | > 50 µM | 40.4 µM | 43.8 pmol*min-1*mg sera-1 | 1.08 103 | 19.4 103 | – | – | –
5 | CCSCC(=O)OCOc1ccc2c(c1)Oc1cc(OCOC(=O)CSCC)ccc1C21OC(=O)c2ccccc21 [2S] | > 50 µM | > 50 µM | – | – | – | > 50 µM | > 50 µM | –
6 | CCCOCC(=O)OCOc1ccc2c(c1)Oc1cc(OCOC(=O)COCCC)ccc1C21OC(=O)c2ccccc21 [3O] | > 50 µM | 22.2 µM | 11.7 pmol*min-1*mg sera-1 | 0.911 103 | 4.91 103 | – | – | –
7 | CCCSCC(=O)OCOc1ccc2c(c1)Oc1cc(OCOC(=O)CSCCC)ccc1C21OC(=O)c2ccccc21 [3S] | > 50 µM | 74.3 µM | 8.80 pmol*min-1*mg sera-1 | – | – | > 50 µM | > 50 µM | –
8 | COCCC(=O)OCOc1ccc2c(c1)Oc1cc(OCOC(=O)CCOC)ccc1C21OC(=O)c2ccccc21 [4O] | > 50 µM | 44.5 µM | 5.88 pmol*min-1*mg sera-1 | 1.40 103 | 8.42 103 | – | – | –
9 | CSCCC(=O)OCOc1ccc2c(c1)Oc1cc(OCOC(=O)CCSC)ccc1C21OC(=O)c2ccccc21 [4S] | > 50 µM | 27.9 µM | 3.81 pmol*min-1*mg sera-1 | 1.40 103 | – | – | > 50 µM | –
10 | CCSCCC(=O)OCOc1ccc2c(c1)Oc1cc(OCOC(=O)CCSCC)ccc1C21OC(=O)c2ccccc21 [5S] | > 50 µM | 31 µM | 0.690 pmol*min-1*mg sera-1 | 0.910 103 | 4.35 103 | – | – | –
11 | CC(C)CCC(=O)OCOc1ccc2c(c1)Oc1cc(OCOC(=O)CCC(C)C)ccc1C21OC(=O)c2ccccc21 [6C] | 53.5 µM | > 50 µM | – | – | 12.7 103 | > 50 µM | – | 17.6 pmol*min-1*mg sera-1
12 | CC(C)OCC(=O)OCOc1ccc2c(c1)Oc1cc(OCOC(=O)COC(C)C)ccc1C21OC(=O)c2ccccc21 [6O] | 11.5 µM | 54.6 µM | 11.7 pmol*min-1*mg sera-1 | 1.49 103 | 5.76 103 | – | – | 437 pmol*min-1*mg sera-1
13 | CC(C)SCC(=O)OCOc1ccc2c(c1)Oc1cc(OCOC(=O)CSC(C)C)ccc1C21OC(=O)c2ccccc21 [6S] | > 50 µM | > 50 µM | – | 2.44 103 | 12.9 103 | – | – | –
14 | CCC(C)C(=O)OCOc1ccc2c(c1)Oc1cc(OCOC(=O)C(C)CC)ccc1C21OC(=O)c2ccccc21 (stereo not drawn) [7C] | > 50 µM | 64.2 µM | 0.441 pmol*min-1*mg sera-1 | – | – | > 50 µM | > 50 µM | –
15 | COC(C)C(=O)OCOc1ccc2c(c1)Oc1cc(OCOC(=O)C(C)OC)ccc1C21OC(=O)c2ccccc21 (stereo not drawn) [7O] | 25.9 µM | 30.3 µM | 5.73 pmol*min-1*mg sera-1 | 3.31 103 | 23.6 103 | – | – | 929 pmol*min-1*mg sera-1
16 | CSC(C)C(=O)OCOc1ccc2c(c1)Oc1cc(OCOC(=O)C(C)SC)ccc1C21OC(=O)c2ccccc21 (stereo not drawn) [7S] | > 50 µM | 30.2 µM | 1.60 pmol*min-1*mg sera-1 | – | 7.86 103 | > 50 µM | – | –
17 | CCCC(C)C(=O)OCOc1ccc2c(c1)Oc1cc(OCOC(=O)C(C)CCC)ccc1C21OC(=O)c2ccccc21 (stereo not drawn) [8C] | > 50 µM | > 50 µM | – | – | 79.1 103 | > 50 µM | – | –
18 | CCOC(C)C(=O)OCOc1ccc2c(c1)Oc1cc(OCOC(=O)C(C)OCC)ccc1C21OC(=O)c2ccccc21 (stereo not drawn) [8O] | > 50 µM | 27.7 µM | 3.93 pmol*min-1*mg sera-1 | 1.38 103 | 6.80 103 | – | – | –
19 | CCSC(C)C(=O)OCOc1ccc2c(c1)Oc1cc(OCOC(=O)C(C)SCC)ccc1C21OC(=O)c2ccccc21 (stereo not drawn) [8S] | > 50 µM | > 50 µM | – | – | 9.01 103 | > 50 µM | – | –
20 | CCC(OC)C(=O)OCOc1ccc2c(c1)Oc1cc(OCOC(=O)C(CC)OC)ccc1C21OC(=O)c2ccccc21 (stereo not drawn) [9O] | > 50 µM | 112 µM | 4.35 pmol*min-1*mg sera-1 | – | 14.6 103 | > 50 µM | – | –
21 | CCC(SC)C(=O)OCOc1ccc2c(c1)Oc1cc(OCOC(=O)C(CC)SC)ccc1C21OC(=O)c2ccccc21 (stereo not drawn) [9S] | > 50 µM | > 50 µM | – | – | – | > 50 µM | > 50 µM | –
22 | CCC(C)(C)C(=O)OCOc1ccc2c(c1)Oc1cc(OCOC(=O)C(C)(C)CC)ccc1C21OC(=O)c2ccccc21 [10C] | > 50 µM | > 50 µM | – | – | – | > 50 µM | > 50 µM | –
23 | COC(C)(C)C(=O)OCOc1ccc2c(c1)Oc1cc(OCOC(=O)C(C)(C)OC)ccc1C21OC(=O)c2ccccc21 [10O] | > 50 µM | 63.3 µM | 1.46 pmol*min-1*mg sera-1 | 4.97 103 | – | – | > 50 µM | –
24 | O=C(CCc1ccccc1)OCOc1ccc2c(c1)Oc1cc(OCOC(=O)CCc3ccccc3)ccc1C21OC(=O)c2ccccc21 [11C] | > 50 µM | > 50 µM | – | – | – | > 50 µM | > 50 µM | –
25 | O=C(COc1ccccc1)OCOc1ccc2c(c1)Oc1cc(OCOC(=O)COc3ccccc3)ccc1C21OC(=O)c2ccccc21 [11O] | > 50 µM | > 50 µM | – | – | – | > 50 µM | > 50 µM | –
26 | O=C(CSc1ccccc1)OCOc1ccc2c(c1)Oc1cc(OCOC(=O)CSc3ccccc3)ccc1C21OC(=O)c2ccccc21 [11S] | > 50 µM | > 50 µM | – | – | – | > 50 µM | > 50 µM | –
27 | C=CCOC(C)C(=O)OCOc1ccc2c(c1)Oc1cc(OCOC(=O)C(C)OCC=C)ccc1C21OC(=O)c2ccccc21 (stereo not drawn) [12O] | > 50 µM | 42.2 µM | 4.00 pmol*min-1*mg sera-1 | – | 1.28 103 | > 50 µM | – | –
28 | C=CCSC(C)C(=O)OCOc1ccc2c(c1)Oc1cc(OCOC(=O)C(C)SCC=C)ccc1C21OC(=O)c2ccccc21 (stereo not drawn) [12S] | > 50 µM | > 50 µM | – | – | – | > 50 µM | > 50 µM | –
